According to PMC5622079, “Control of leucine-dependent mTORC1 pathway through chemical intervention of leucyl-tRNA synthetase and RagD interaction” (Nature Communications, 2017):

Key:
[1] = molecular target: T1, Leucyl-tRNA synthetase (LRS) (Homo sapiens, UniProt Q9P2J5); assay: SPR (Biacore T-200, immobilised His-LRS); type: binding; design: gene LARS1; His-LRS WT
[2] = molecular target: T1, Leucyl-tRNA synthetase (LRS); assay: HDX-MS (with BC-LI-0198) and thermal shift; type: binding; design: gene LARS1; human full-length LRS, N-terminal His9-tag

T1 sequence (Q9P2J5 whole entry): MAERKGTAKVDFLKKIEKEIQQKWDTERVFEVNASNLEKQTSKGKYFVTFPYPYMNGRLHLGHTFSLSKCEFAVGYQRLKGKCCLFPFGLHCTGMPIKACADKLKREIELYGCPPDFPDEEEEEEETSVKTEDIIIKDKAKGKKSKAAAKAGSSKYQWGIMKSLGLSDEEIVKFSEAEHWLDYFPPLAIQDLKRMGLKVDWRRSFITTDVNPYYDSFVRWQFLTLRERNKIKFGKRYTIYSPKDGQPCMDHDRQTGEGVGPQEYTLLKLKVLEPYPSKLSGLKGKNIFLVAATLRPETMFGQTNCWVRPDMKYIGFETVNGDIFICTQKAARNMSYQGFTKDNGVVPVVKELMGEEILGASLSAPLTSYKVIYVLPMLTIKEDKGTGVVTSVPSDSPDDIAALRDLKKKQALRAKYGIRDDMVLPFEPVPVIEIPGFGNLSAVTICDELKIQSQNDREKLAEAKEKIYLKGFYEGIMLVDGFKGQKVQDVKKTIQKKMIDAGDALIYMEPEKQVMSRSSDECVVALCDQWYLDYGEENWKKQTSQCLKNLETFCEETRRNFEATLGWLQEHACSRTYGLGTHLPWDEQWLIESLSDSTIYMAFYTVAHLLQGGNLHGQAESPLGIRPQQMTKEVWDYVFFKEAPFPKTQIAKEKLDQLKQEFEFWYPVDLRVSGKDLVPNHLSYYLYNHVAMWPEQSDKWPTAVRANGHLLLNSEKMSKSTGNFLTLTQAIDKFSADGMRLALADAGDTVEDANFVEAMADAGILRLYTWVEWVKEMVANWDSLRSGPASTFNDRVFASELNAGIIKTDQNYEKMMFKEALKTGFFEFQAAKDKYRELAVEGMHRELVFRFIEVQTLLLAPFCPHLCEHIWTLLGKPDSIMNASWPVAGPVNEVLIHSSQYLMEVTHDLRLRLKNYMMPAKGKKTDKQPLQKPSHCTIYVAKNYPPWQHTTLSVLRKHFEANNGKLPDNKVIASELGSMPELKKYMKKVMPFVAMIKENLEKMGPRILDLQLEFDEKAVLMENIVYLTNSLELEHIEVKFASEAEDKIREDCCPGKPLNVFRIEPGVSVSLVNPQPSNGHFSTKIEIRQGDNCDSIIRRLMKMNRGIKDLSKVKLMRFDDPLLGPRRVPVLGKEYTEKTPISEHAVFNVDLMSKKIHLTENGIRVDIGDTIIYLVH

Kd [1]	Compound	HDX-MS (with BC-LI-0198) and thermal shift [2]
42.1 nM	Cc1c(C(C)C)c(=O)n(-c2ccc(S(=O)(=O)NCCOc3ccccc3)cc2)n1C [BC-LI-0186]	
	CC(C)C[C@H](N)C(=O)NS(=O)(=O)OC[C@H]1O[C@@H](n2cnc3c(N)ncnc32)[C@H](O)[C@@H]1O [Leu-AMS]	HDX)-MS assays for LRS bound to BC-LI-0198 and Leu-AMS, a leucyl-sulfamoyl-adenylate analog of leucyl adenylate
